Experimental findings from ChEMBL document CHEMBL2074327, “hPepT1-mediated epithelial transport of bacteria-derived chemotactic peptides enhances neutrophil-epithelial interactions” (J Clin Invest, 1998) are described below.

What all share (assay type): functional, cell-based
The target of test [1] is T1, Solute carrier family 15 member 1 (Homo sapiens) (UniProt P46059).
T1 sequence (whole entry): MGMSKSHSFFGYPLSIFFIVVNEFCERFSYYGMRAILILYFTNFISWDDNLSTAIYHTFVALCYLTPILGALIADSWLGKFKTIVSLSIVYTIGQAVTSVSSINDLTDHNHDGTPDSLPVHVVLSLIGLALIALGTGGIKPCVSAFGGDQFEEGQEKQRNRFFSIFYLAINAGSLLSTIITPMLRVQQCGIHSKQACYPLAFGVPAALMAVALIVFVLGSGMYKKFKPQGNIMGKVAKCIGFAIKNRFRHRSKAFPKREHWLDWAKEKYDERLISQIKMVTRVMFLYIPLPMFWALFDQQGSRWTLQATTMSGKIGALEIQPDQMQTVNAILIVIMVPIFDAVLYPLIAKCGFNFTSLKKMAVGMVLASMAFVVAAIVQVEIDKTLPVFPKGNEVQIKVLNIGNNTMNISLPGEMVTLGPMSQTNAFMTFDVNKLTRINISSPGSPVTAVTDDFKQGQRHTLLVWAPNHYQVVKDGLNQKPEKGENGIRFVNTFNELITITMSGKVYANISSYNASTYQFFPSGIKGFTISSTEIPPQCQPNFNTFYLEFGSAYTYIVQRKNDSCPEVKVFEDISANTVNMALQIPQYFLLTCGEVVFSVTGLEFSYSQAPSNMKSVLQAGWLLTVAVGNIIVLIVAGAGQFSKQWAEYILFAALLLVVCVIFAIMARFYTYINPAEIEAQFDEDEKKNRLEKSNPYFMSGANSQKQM
The experiment in a line: TP_TRANSPORTER: inhibition of fMLP uptake (fMLP: 0.1 uM, Gly-Leu: 10000 uM) in Caco-2 cells.

Test [2] deals with T1, Solute carrier family 15 member 1 (Homo sapiens). The experiment in a line: TP_TRANSPORTER: inhibition of fMLP uptake (fMLP: 0.12 uM, Gly-Leu: 10000 uM) in Xenopus laevis oocytes. The conditions noted are these: Oocyte.
For test [3] the target is unchanged. The experiment in a line: TP_TRANSPORTER: uptake in Xenopus laevis oocytes. The conditions noted are these: Oocyte.
For test [4] the target is unchanged. The experiment in a line: TP_TRANSPORTER: inhibition of Gly-Sar uptake (Gly-Sar: 100 uM, fMLP: 1000 uM) in Xenopus laevis oocytes. The conditions noted are these: Oocyte.
The target is the same in test [5]. The experiment in a line: TP_TRANSPORTER: inhibition of fMLP uptake (fMLP: 0.1 uM, Gly-Pro: 10000 uM) in Caco-2 cells.
Test [6] has the same target. The experiment in a line: TP_TRANSPORTER: inhibition of fMLP uptake (fMLP: 0.1 uM, Carnosine: 10000 uM) in Caco-2 cells.

Peptide text beside a SMILES is read from it.

In the case of `CC(C)C[C@H](NC(=O)CN)C(=O)O`, the inhibition in test [1] was 93%. In addition, in test [2], the Activity entry was “inhibitor [+]”.

For `CSCC[C@H](NC=O)C(=O)N[C@@H](CC(C)C)C(=O)N[C@@H](Cc1ccccc1)C(=O)O`, the Activity entry in test [3] is “substrate [+]”. The inhibition in test [4] was 88%. `NCC(=O)N1CCC[C@H]1C(=O)O` (H-Gly-Pro-OH): the inhibition in test [5] was 78%. Turning to `NCCC(=O)N[C@@H](Cc1c[nH]cn1)C(=O)O`, in test [6], the inhibition was 93%.

The inhibition is the relative decrease from the control value, in per cent.
